Source: ChEMBL document CHEMBL4483862, “Open-source discovery of chemical leads for next-generation chemoprotective antimalarials” (2018)
pIC50: −log10 of the molar value.

System: Plasmodium berghei
Experiment: Luciferase/luciferin-expressing antifolate-resistant parasites were used to infect a culture of HepG2 cells that were pre-incubated with compounds. Infected hepatocytes emit light due to the luciferase reaction. Assay results are presented as the percent inhibition of light emission compared to control. […]
Type: functional
Conditions: sporozoite; for pIC50: read-out: LUCIFERASE INFECTION ASSAY - IC50; for IC90: read-out: LUCIFERASE INFECTION ASSAY - IC90

Structure (SMILES)	pIC50	IC90
COC(=O)c1cc2c(N)c(C(=O)c3ccc(Cl)cc3)sc2nc1C(OC)OC	< 5.11	> 7.84 µM
COc1ccc(CCN=C(S)Nc2ccccc2C)cc1	< 4.96	> 11 µM
O=C(Nc1ccccc1)Nc1cccc(Cl)c1	< 4.87	> 13.4 µM
Cc1ccc(C(=N)NOC(=O)c2cccc(Cn3cc(C(F)(F)F)ccc3=O)c2)cc1	< 5.11	> 7.69 µM
C=CCc1ccccc1OCC(O)CN1CCN(c2ccccc2OC)CC1 (configuration not stated)	< 5.10	> 7.88 µM
COC(OC)c1ccc(C#N)c(SCC(=O)c2ccc(Cl)cc2)n1	< 5.04	> 9.1 µM
COc1cc(OC)cc(OCC(O)Cn2ccnc2)c1 (configuration not stated)	< 4.92	> 11.9 µM
Cc1ccc(OCC(=O)NS(=O)(=O)c2ccccc2)cc1	< 4.97	> 10.8 µM
CNc1nc(NCc2ccc(C)cc2C)c2sccc2n1	< 4.95	> 11.1 µM
COc1ccccc1CNc1nc(NCc2ccccc2SC)c2sccc2n1	< 5.11	> 7.81 µM
COc1ccc(C(C)(O)c2nc(-c3cccc(F)c3)cs2)cc1 (configuration not stated)	5.29	5.23 µM
CC(C)c1ccc(NC(=O)CSc2nccc(-c3csc(COc4ccccc4Cl)n3)n2)cc1	< 5.19	> 6.46 µM
O=[N+]([O-])c1cnc(Sc2nnc(O)n2-c2ccc(OCc3ccccc3)cc2)s1	5.42	> 7.72 µM
Cc1nnc(Sc2ncc([N+](=O)[O-])s2)n1-c1ccc(OCc2ccccc2)cc1	< 5.11	> 7.76 µM
COc1ccc(Cl)cc1NC(=O)N1CCC(Cc2ccccc2)CC1	< 5.04	> 9.2 µM
COc1ccc2[nH]cc(CCNC(=O)Nc3ccc(Cl)c(Cl)c3)c2c1	< 5.06	> 8.72 µM
Cc1nc(SCc2ccc(C(F)(F)F)cc2)n(C)c(=O)c1Oc1ccc(F)cc1	< 5.11	> 7.78 µM
Cn1c(Sc2cnc(SCc3ccc(Cl)cc3)nc2-c2ccccc2)nnc1C(F)(F)F	< 5.18	> 6.68 µM
CCOC(=O)c1cc(Sc2ccccc2NC(=O)Nc2ccc(C)cc2)cc(C(=O)OCC)n1	< 5.16	> 6.88 µM
CC(C)(C)c1ccc(OCC(=N)NC(=O)c2ccc(OC(F)(F)F)cc2)cc1	< 5.08	> 8.37 µM
CN(CCOC(=O)Nc1cc(Cl)cc(Cl)c1)c1ncc(C(F)(F)F)cc1Cl	< 5.13	> 7.46 µM
Clc1ccc(-c2nnc(Sc3nc(-c4cccs4)ns3)[nH]2)cc1	< 5.06	> 8.73 µM

Structure (SMILES)	pIC50	IC90
CC(=C(C#N)C#N)c1ccc2c(c1)OCCO2	< 5.00	> 10 µM
COC(=O)c1cnc(Sc2n[nH]c(=O)n2C2CCCCC2)c([N+](=O)[O-])c1	< 5.06	> 8.7 µM
Nc1ncc(-c2ccc(F)c(Cl)c2)cc1-c1ccc(O)cc1	< 4.98	> 10.5 µM
CC(=O)c1ccc(N2CCN(Cc3ccc(C)s3)CC2)cc1	< 4.98	> 10.5 µM
COC(=O)c1cnc(Sc2n[nH]c(=O)n2-c2ccc(Cl)cc2)c([N+](=O)[O-])c1	< 5.09	> 8.09 µM
Cc1ccc(-c2cnc(N)c(-c3ccc(C(=O)NCCN(C)C)cc3)c2)cc1	< 5.06	> 8.81 µM
COc1ccc(CC(N)c2csc(NC(=O)Nc3cccc(Cl)c3)n2)cc1 (configuration not stated)	< 5.09	> 8.19 µM
O=C(Nc1cccc(Cl)c1)n1nccc1-c1cc(-c2ccccc2)no1	< 5.04	> 9.05 µM
Nc1ncc(-c2cc(C(F)(F)F)cc(C(F)(F)F)c2)cc1-c1ccc(O)cc1	< 5.08	> 8.29 µM
Nc1ncc(-c2cc(C(F)(F)F)cc(C(F)(F)F)c2)cc1-c1cncc2ccccc12	< 5.12	> 7.62 µM
Cc1cc(NC(=O)COc2ccc(C(C)C)cc2)no1	< 4.92	> 12 µM
Cn1ccnc1Sc1cnc(SCC(=O)c2ccc(Cl)cc2)nc1-c1ccccc1	< 5.14	> 7.28 µM
FC(F)(F)c1csc(Nc2ccc(Cl)c(Cl)c2)n1	4.98	> 10.5 µM
Cc1ccc(Cn2nc(C)cc2C(=O)Sc2ccccc2)cc1	< 4.99	> 10.2 µM
Nc1ncc(-c2ccc(F)c(Cl)c2)cc1-c1cccc(O)c1	< 4.98	> 10.5 µM
Cc1ccccc1N1CCCn2c1nc1c2c(=O)[nH]c(=O)n1C	< 4.97	> 10.6 µM
Clc1cc(Cl)cc(-c2nnc(Sc3nc(-c4cccs4)ns3)[nH]2)c1	< 5.10	> 8 µM
CC(C)CC(N)c1csc(NC(=O)c2ccc(F)c(Cl)c2)n1 (configuration not stated)	5.06	> 9.65 µM
Cc1ccc(CSc2n[nH]c(=O)n2C2CC3C=CC2C3)cc1 (configuration not stated)	< 4.98	> 10.5 µM
COc1ccccc1-c1cc(-c2cccc(OC(F)(F)F)c2)cnc1N	< 5.04	> 9.16 µM
Cc1ccc(CSc2nc(C)c(Oc3ccc(F)cc3)c(=O)n2C)cc1	< 5.05	> 8.91 µM
COc1ccccc1Nc1nc(-c2c(-c3ccc(Cl)cc3Cl)noc2C)cs1	5.64	7.32 µM

Structure (SMILES)	pIC50	IC90
CCOC(=O)c1cc(C#N)c(Sc2n[nH]c(=O)n2Cc2ccccc2)nc1C(F)(F)F	< 5.13	> 7.34 µM
C/C(=N\OC(=O)Nc1ccccc1)c1sc2nc(C(F)(F)F)nn2c1C	< 5.06	> 8.61 µM
C/C(=N\NC(=S)NC(C)(C)C)c1ccc(OCc2ncc(C(F)(F)F)cc2Cl)cc1	6.10	0.938 µM
NC(c1csc(NC(=O)Nc2cccc3ccccc23)n1)C1CCCCC1 (configuration not stated)	< 5.06	> 8.67 µM
Cc1nnsc1-c1onc(C)c1C(=O)NC(=O)Nc1ccccc1	5.33	> 9.61 µM
FC(F)(F)c1cc(Nc2nc(-c3cc(-c4ccc(Cl)cc4Cl)no3)cs2)cc(C(F)(F)F)c1	< 5.20	> 6.29 µM
CCOc1ccccc1N1CCN(CC(=O)Nc2cc(C)ccc2C)CC1	< 5.00	> 10 µM
O=C(CSc1nnc(-c2ccco2)n1-c1ccc(OCc2ccccc2)cc1)c1ccc(Cl)cc1	< 5.18	> 6.57 µM
CC(C)(C)c1ccc(-c2nnc(SCc3c(Cl)cccc3Cl)n2Cc2ccco2)cc1	5.46	> 6.99 µM
COc1cc2c(cc1OC)C(c1cccc(C(F)(F)F)c1)CC(=O)N2 (configuration not stated)	< 5.03	> 9.39 µM
O=C(NNC(=S)Nc1cccc(C(F)(F)F)c1)c1ccc(OC(F)(F)F)cc1	< 5.11	> 7.8 µM
O=C(Nc1cccc(Cl)c1)Nc1ccccc1SCc1ncc(C(F)(F)F)cc1Cl	< 5.16	> 6.99 µM
CCCCc1ccc(NC(=O)c2cc(OC)c(OC)c(OC)c2)cc1	< 5.02	> 9.61 µM
Nc1ncc(-c2cc(F)c(F)c(F)c2)cc1-c1cccc(O)c1	< 4.98	> 10.4 µM
O=C(CC1(O)C(=O)Nc2ccccc21)c1ccc(OCC(=O)N2CCOCC2)cc1 (configuration not stated)	< 5.00	> 10 µM
COC(=O)c1cc(C#N)c(SCC(=O)c2ccc(Cl)cc2)nc1C(OC)OC	< 5.11	> 7.84 µM
CCN(CC)c1ccc(Nc2nc(-c3sc(C)nc3C)cs2)cc1	< 5.04	> 9.2 µM
CCOC(=O)c1cc(C#N)c(N2CCN(S(=O)(=O)c3ccccc3Cl)CC2)nc1C(F)(F)F	< 5.18	> 6.56 µM
CN1CCc2nc3sc(C(=O)Nc4ccc(Cl)cc4F)c(N)c3cc2C1	< 5.07	> 8.44 µM
COc1cc(OC)cc(Oc2nc(NC(C)C)nc3ccsc23)c1	5.90	1.38 µM
NC(CCc1ccccc1)c1csc(NC(=O)Nc2cccc3ccccc23)n1 (configuration not stated)	5.29	> 8.2 µM
CC(C)c1ccc(NC(=O)CCCc2ccccc2)cc1	< 4.93	> 11.7 µM

Structure (SMILES)	pIC50	IC90
FC(F)(F)c1cccc(NC(=S)Nc2cccnc2N2CCC(C(F)(F)F)CC2)c1	< 5.13	> 7.36 µM
O=C(Nc1ccc(Cl)cc1)n1ncc(Sc2ccc(Cl)cc2)c1-c1ccc(Cl)cc1	< 5.16	> 6.95 µM
CCOC(=O)c1c[nH]c2ccc(OC(F)(F)F)cc2c1=O	< 4.96	> 11 µM
CC(C)(C)c1ccc(NC(=O)c2sc3nc4c(c(-c5cccnc5)c3c2N)CCC4)cc1	< 5.13	> 7.46 µM
COCOc1ccc(-c2cc(-c3cc(C)c(O)c(C)c3)cnc2N)cc1	5.35	6.77 µM
CC(C)(C)c1cc(C(=O)NNC(=O)c2ccc(C(F)(F)F)cc2)n(Cc2ccccc2)n1	< 5.13	> 7.42 µM
Cc1ccc(C(=O)Nc2nc(C(N)Cc3ccccc3)cs2)cc1 (configuration not stated)	< 5.01	> 9.78 µM
CC(C)(C)NC(=O)c1cc(-c2ccccc2Cl)nc2ccccc12	< 5.01	> 9.74 µM
Cc1nn(CC(=O)Nc2cccc(Cl)c2)c(C)c1Oc1ccccc1	5.27	> 9.27 µM
NC(c1ccccc1)c1csc(NC(=O)NC(c2ccccc2)c2ccccc2)n1 (configuration not stated)	< 5.10	> 7.96 µM
CC(C)(C)c1ccc(NC(=O)NCCSCc2ccco2)cc1	< 5.00	> 9.93 µM
FC(F)(F)c1cc(Nc2ncc(-c3ccc4c(c3)OCCCO4)s2)cc(C(F)(F)F)c1	5.28	> 7.17 µM
Nc1cc(C(F)(F)F)cnc1Nc1ccc(Cl)cc1	< 4.94	> 11.5 µM
O=C(O)COc1ccccc1/C=C1\NC(=S)NC1=O	< 5.00	> 10 µM
Cc1nn(CC(=O)Nc2cccc(C(F)(F)F)c2)c(C)c1Oc1ccccc1	5.40	8.01 µM
CC(=O)Oc1ccccc1C(=O)NCc1ccc(C)cc1	< 4.94	> 11.6 µM
NC(=O)c1ccc(-c2cc(-c3cc(F)c(F)c(F)c3)cnc2N)cc1	< 5.02	> 9.61 µM
COC(=O)c1cnc(Sc2n[nH]c(=O)n2-c2cccc(C(F)(F)F)c2)c([N+](=O)[O-])c1	< 5.13	> 7.48 µM
NC(Cc1ccc(F)cc1)c1csc(NC(=O)Nc2ccccc2Oc2ccccc2)n1 (configuration not stated)	< 5.13	> 7.36 µM
Cc1cccc(Cn2nc(C(C)(C)C)cc2-c2nnc(SCc3ccccc3)n2C2CCCCC2)c1	< 5.18	> 6.6 µM
